Source: patent US20240279191A1, “SMALL MOLECULE INHIBITORS OF TEAD-YAP” (The General Hospital Corporation, priority 2021, published 2024)
Like-named read-outs stand apart in the source and are kept apart here. Blank lines part the entries; values can stand above or below the molecule they belong to.

How the values were obtained:
[1] = physchem; details: pH 7.4
[2] = in vitro; details: human
[3] = in vitro; details: mouse
[4] = logD 7.4; details: pH 7.4
[5] = Metabolic stability CLint, human (Tables H1, H2)
[6] = Metabolic stability CLint, mouse (Tables H1, H2)
[7] = Metabolic stability MLM; details: for Met stab MLM, 15 min / Met stab MLM, 60 min: % parent remained per Table G2
[8] = tested on: H226; assay: H226 growth inhibition (SAR tables); format: cell-based; details: for GI50: Homo sapiens, NCI-H226
[9] = Aqueous solubility (Aq Sol); format: physicochemical
[10] = tested on: TEAD; assay: WB primary assay (SAR tables F1, F3A); format: biochemical
[11] = tested on: KNS62; assay: KNS62 growth inhibition (SAR tables); format: cell-based
[12] = Pharmacokinetics / oral bioavailability in male CD-1 mice; format: in vivo; details: for AUC(0-inf): Table F2A; for half-life: read-out: t1/2, β (converted)
Description: Example G. Oral Bioavailability of MGH-CP-715 in Male CD-1Mice

[13] = tested on: H226 cells; assay: Cell proliferation assay (MTT), H226; details: 6 days, FIG. 8C
[14] = Metabolic stability in mouse hepatic microsomes (Scripps Florida DMPK Core); format: in vitro ADME; details: for half-life / microsomal CLint: mouse, liver microsomes; for half-life: 1 mg/mL hepatic microsomes; for microsomal CLint: hepatic microsomes, read-out: Intrinsic Clearance, Mouse (Clint); for metabolic stability (in words): Tables E1 and E2, human and mouse microsomes
[15] = target: TEAD2 (Homo sapiens, UniProt Q15562); assay: Inhibition of TEAD2 auto-palmitoylation in vitro; details: FIG. 1; 0.05 and 0.5 μM for 30 mins
[16] = Metabolic stability in human hepatic microsomes (Scripps Florida DMPK Core); format: in vitro ADME; details: liver microsomes; for half-life: 1 mg/mL hepatic microsomes; for microsomal CLint: hepatic microsomes, read-out: Intrinsic Clearance, Human (Clint)
[17] = male, CD-1, mouse, in vivo, 1 mg/Kg IV
[18] = male, CD-1, mouse, in vivo, 10 mg/Kg PO

TEAD2, sequence (Q15562 whole entry): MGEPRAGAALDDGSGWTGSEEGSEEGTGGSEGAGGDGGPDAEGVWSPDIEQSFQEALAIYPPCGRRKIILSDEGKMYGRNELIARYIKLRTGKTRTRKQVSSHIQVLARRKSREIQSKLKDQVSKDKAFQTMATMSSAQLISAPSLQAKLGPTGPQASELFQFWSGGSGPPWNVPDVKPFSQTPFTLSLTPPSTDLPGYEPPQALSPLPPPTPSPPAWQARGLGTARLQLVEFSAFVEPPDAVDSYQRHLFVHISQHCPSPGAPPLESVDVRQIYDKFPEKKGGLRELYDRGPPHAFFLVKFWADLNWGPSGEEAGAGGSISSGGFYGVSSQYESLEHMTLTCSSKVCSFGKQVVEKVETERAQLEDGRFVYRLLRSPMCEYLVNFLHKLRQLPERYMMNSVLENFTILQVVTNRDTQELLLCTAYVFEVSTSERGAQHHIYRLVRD

SMILES: NC(=O)c1cncc(OC(=O)N2CCC(CCc3cccc(C(=O)N4CCCC4)c3)CC2)c1
logD [1]: 2.6
CLint scaled [2]: 86 mL/min/kg
CLint scaled [3]: 90 mL/min/kg

SMILES: O=C(Nc1ccccc1)C1CCN(C(=O)Oc2cccnc2)CC1
logD [4]: 2.16
CLint human [5]: no depletion (stable)
CLint scaled [6]: 47 mL/min/kg

SMILES: O=C(Nc1ccccc1)N1C[C@@H]2C[C@H]1CN2C(=O)c1cccc(OCCC2CCCCC2)c1 [MGH-CP-717]
MLM stability (in words) [7]: poor
Met stab MLM, 15 min ([7]; 15 min): 6%
Met stab MLM, 60 min ([7]; 60 min): < 5%
activity in primary assay (in words) [10]: inactive
WB: % inh. @ 1 μM [10]: −2%
WB: % inh. @ 10 μM [10]: 22%

SMILES: O=C(Oc1ccccc1)N1CCN(Cc2cccc(OCCC3CCCCC3)c2)CC1 [MGH-CP-718]
Met stab MLM, 15 min ([7]; 15 min): 59%
Met stab MLM, 60 min ([7]; 60 min): 13%
MLM stability (in words) ([7]; mouse, microsomes): moderately stable
activity in primary assay (in words) [10]: inactive
WB: % inh. @ 1 μM [10]: −4%
WB: % inh. @ 10 μM [10]: 11%

SMILES: O=C(Nc1ccccc1)N1CCN(C(=O)c2cccc(OCCC3CCOCC3)c2)CC1 [TM45, N-phenyl-4-(3-(2-(tetrahydro-2H-pyran-4-yl)ethoxy)benzoyl)piperazine-1-carboxamide]
H226 anti-proliferative potency relative to TM2 (in words) [13]: less potent than TM2
half-life [14]: 11.2 min
microsomal CLint [14]: 62 µL/min/mg
inhibition of TEAD2 auto-palmitoylation (in words) [15]: significantly decrease the activities

SMILES: O=C(Nc1ccccc1)N1CCN(C2(c3cccc(OCCc4ccccc4)c3)COC2)CC1 [TM97]
half-life [14]: 1.7 min
microsomal CLint [14]: 415 µL/min/mg

SMILES: O=C(Nc1ccccc1)N1CCN([S+]([O-])c2cccc(OCCc3ccccc3)c2)CC1 (stereo not drawn) [TM100]
metabolic stability (in words) [14]: improved metabolic stability
half-life [14]: 9.6 min
microsomal CLint [14]: 72 µL/min/mg
half-life [16]: 5.8 min
microsomal CLint [16]: 120 µL/min/mg

SMILES: Nc1ccc(NC(=O)N2CCN(C(=O)c3cccc(OCCC4CCCCC4)c3)CC2)cc1 [TM112, N-(4-aminophenyl)-4-(3-(2-cyclohexylethoxy)benzoyl)piperazine-1-carboxamide]
H226 anti-proliferative potency relative to TM2 (in words) [13]: less potent than TM2

Continued, in another order:

logD [4]: 2.59
CLint scaled [5]: 54 mL/min/kg
CLint scaled [6]: 87 mL/min/kg
SMILES: O=C(NCCc1cccc(F)c1)C1CCN(C(=O)Oc2ccccc2)CC1

Met stab MLM, 15 min ([7]; 15 min): 26%
Met stab MLM, 60 min ([7]; 60 min): < 5%
GI50 [8]: 1.97 µM
Aq Sol [9]: 2 µM
SMILES: C[C@@H]1CN(C(=O)Nc2ccccc2)[C@@H](C)CN1C(=O)c1cccc(OCCC2CCCCC2)c1 [MGH-CP-709]
WB: % inh. @ 1 μM [10]: 45%
WB: % inh. @ 10 μM [10]: 77%
KNS62: value at 1 μM [11]: 28
KNS62: value at 10 μM [11]: 46

Met stab MLM, 15 min ([7]; 15 min): 41%
Met stab MLM, 60 min ([7]; 60 min): < 5%
GI50 [8]: 1.04 µM
Aq Sol [9]: <2 µM
SMILES: CC1CN(C(=O)Nc2ccccc2)CCN1C(=O)c1cccc(OCCC2CCCCC2)c1 (stereo not drawn) [MGH-CP-710]
WB: % inh. @ 1 μM [10]: 54%
WB: % inh. @ 10 μM [10]: 81%
KNS62: value at 1 μM [11]: 35
KNS62: value at 10 μM [11]: 51

Met stab MLM, 15 min ([7]; 15 min): 29%
Met stab MLM, 60 min ([7]; 60 min): < 5%
GI50 [8]: 2.64 µM
Aq Sol [9]: <2 µM
SMILES: O=C(Oc1ccccc1)N1CCN(C(=O)c2cccc(OCCC3CCCCC3)c2)CC1 [MGH-CP-714]
WB: % inh. @ 1 μM [10]: 16%
WB: % inh. @ 10 μM [10]: 94%
KNS62: value at 1 μM [11]: 10
KNS62: value at 10 μM [11]: 48

% Parent remained MLM, 15 min ([7]; 15 min, Table G2): 66%
Met stab MLM, 15 min ([7]; 15 min): 66%
% Parent remained MLM, 60 min ([7]; 60 min, Table G2): 15%
Met stab MLM, 60 min ([7]; 60 min): 15%
F (oral bioavailability) ([12]; 10 mg/Kg PO versus 1 mg/Kg IV): ~5.7%
bioavailability ([12]; male, CD-1, mouse, in vivo, oral, 10 mg/Kg, 10 mg/Kg PO versus 1 mg/Kg IV, read-out: F (oral bioavailability)): ~5%
AUC(0-t) [12, 17]: 663 ng·h/mL
MRT [12, 17]: 88.2 min
clearance [12, 17]: 22.6 mL/min/kg
AUC(0-inf) [12, 17]: 736 ng·h/mL
Cmax ([12]; male, CD-1, mouse, in vivo, 1 mg/Kg IV, read-out: C0/Cmax (C0)): 834 ng/mL
Vd ([12]; male, CD-1, mouse, in vivo, 1 mg/Kg IV, read-out: VSS): 3.61 L/kg
half-life [12, 17]: 223 min
AUC(0-t) [12, 18]: 394 ng·h/mL
MRT [12, 18]: 157 min
Tmax [12, 18]: 15 min
AUC(0-inf) [12, 18]: 422 ng·h/mL
Cmax ([12]; male, CD-1, mouse, in vivo, 10 mg/Kg PO, read-out: C0/Cmax (Cmax)): 108 ng/mL
half-life [12, 18]: 112 min
clearance (in words) ([12]; mouse, in vivo): low
volume of distribution (in words) ([12]; mouse, in vivo): high
Aq Sol [9]: <2 µM
SMILES: O=C(Nc1ccccc1)N1CCN(Cc2cccc(OCCC3CCCCC3)c2)CC1 [MGH-CP-715]
H226: value at 1 μM ([8]; 1 μM): 16
H226: value at 10 μM ([8]; 10 μM): 69
WB: % inh. @ 1 μM [10]: 35%
WB: % inh. @ 10 μM [10]: 95%
KNS62: value at 1 μM [11]: 4
KNS62: value at 10 μM [11]: 57

MLM stability (in words) [7]: not improved
Met stab MLM, 15 min ([7]; 15 min): 40%
Met stab MLM, 60 min ([7]; 60 min): < 5%
GI50 [8]: 0.236 µM
SMILES: O=C(Nc1ccccc1)N1CCN(C(=O)c2ccnc(OCCC3CCCCC3)c2)CC1 [MGH-CP-716]
activity in cellular assays (in words) [8]: active
WB: % inh. @ 1 μM [10]: 59%
WB: % inh. @ 10 μM [10]: 96%
KNS62: value at 1 μM [11]: 54
KNS62: value at 10 μM [11]: 60

logD [4]: 2.38
CLint scaled [5]: 109 mL/min/kg
CLint scaled [6]: 156 mL/min/kg
SMILES: O=C(Nc1ncccn1)N1CCN(C(=O)c2cccc(OCCC3CCCCC3)c2)CC1 [TM23]

metabolic stability (in words) [14]: improved metabolic stability
half-life [14]: 16.7 min
microsomal CLint [14]: 41 µL/min/mg
half-life [16]: 11.1 min
microsomal CLint [16]: 62 µL/min/mg
SMILES: Nc1cccc(NC(=O)N2CCN(C(=O)c3cccc(OCCC4CCCCC4)c3)CC2)c1 [TM93]
